US20230257372A1 (CHONG KUN DANG PHARMACEUTICAL CORP., priority 2020, published 2023)
Read-outs that look alike come from different tables or passages of the source.

Columns and labels:
human recombinant HDAC6 = biological target: T1, human recombinant HDAC6 (Homo sapiens, UniProt Q9UBN7); experiment: HDAC6 enzyme activity inhibition (HDAC Fluorimetric Drug Discovery Kit); format: biochemical
T1 construct: purchased Calbiochem Inc. 382180
T1 sequence (Q9UBN7 1-1215): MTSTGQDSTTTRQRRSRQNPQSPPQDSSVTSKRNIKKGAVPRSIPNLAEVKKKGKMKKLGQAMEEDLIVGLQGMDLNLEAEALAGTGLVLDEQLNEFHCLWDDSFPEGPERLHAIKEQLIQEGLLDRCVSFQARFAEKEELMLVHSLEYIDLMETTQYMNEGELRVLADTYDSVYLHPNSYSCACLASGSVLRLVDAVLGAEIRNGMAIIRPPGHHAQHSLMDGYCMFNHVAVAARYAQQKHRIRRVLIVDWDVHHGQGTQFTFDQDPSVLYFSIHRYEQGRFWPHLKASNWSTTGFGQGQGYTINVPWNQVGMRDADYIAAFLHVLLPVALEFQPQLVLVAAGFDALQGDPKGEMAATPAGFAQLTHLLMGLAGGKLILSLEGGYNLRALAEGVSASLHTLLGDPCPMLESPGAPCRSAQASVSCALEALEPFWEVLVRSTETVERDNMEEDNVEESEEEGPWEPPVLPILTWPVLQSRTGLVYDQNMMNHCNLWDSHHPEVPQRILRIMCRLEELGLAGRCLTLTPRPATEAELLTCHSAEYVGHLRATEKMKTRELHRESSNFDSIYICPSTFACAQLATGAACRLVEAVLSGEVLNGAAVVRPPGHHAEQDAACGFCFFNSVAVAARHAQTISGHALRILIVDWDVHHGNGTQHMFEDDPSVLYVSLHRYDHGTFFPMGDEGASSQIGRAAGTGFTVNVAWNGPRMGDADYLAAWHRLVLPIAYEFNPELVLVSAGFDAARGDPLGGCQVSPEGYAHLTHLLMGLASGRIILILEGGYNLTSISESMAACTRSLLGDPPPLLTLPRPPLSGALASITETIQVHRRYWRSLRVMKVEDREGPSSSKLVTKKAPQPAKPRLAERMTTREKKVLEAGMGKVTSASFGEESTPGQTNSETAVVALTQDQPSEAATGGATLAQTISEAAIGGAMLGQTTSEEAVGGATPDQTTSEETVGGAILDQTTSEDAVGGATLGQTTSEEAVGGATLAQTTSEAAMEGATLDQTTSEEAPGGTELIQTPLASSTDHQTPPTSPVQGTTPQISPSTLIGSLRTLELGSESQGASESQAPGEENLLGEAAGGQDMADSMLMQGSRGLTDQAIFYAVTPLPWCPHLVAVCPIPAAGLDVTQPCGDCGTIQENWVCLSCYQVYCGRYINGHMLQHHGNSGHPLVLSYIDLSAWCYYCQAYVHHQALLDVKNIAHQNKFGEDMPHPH
Protocol: (§1) An experiment was conducted to identify the selectivity of the compound represented by formula I of the present invention to HDAC6 through an experiment on HDAC1 and HDAC6 enzyme activity inhibition.
(§2) A 5-fold dilution of the compound was divided into a 96-well plate, after which […] of the enzyme and 10 μM of the substrate were inserted into each well and subjected to reaction at 30° C. for 60 minutes, such that Fluor de Lys® Developer II (BML-KI176) was inserted thereinto and subjected to reaction for 30 minutes and finished.

human recombinant HDAC1 = biological target: T2, human recombinant HDAC1 (Homo sapiens, UniProt Q13547); experiment: HDAC1 enzyme activity inhibition (HDAC Fluorimetric Drug Discovery Kit); format: biochemical; details: read-out: HDAC1
T2 construct: purchased Enzo Life Science, Inc. BML-SE456
T2 sequence (Q13547 whole entry): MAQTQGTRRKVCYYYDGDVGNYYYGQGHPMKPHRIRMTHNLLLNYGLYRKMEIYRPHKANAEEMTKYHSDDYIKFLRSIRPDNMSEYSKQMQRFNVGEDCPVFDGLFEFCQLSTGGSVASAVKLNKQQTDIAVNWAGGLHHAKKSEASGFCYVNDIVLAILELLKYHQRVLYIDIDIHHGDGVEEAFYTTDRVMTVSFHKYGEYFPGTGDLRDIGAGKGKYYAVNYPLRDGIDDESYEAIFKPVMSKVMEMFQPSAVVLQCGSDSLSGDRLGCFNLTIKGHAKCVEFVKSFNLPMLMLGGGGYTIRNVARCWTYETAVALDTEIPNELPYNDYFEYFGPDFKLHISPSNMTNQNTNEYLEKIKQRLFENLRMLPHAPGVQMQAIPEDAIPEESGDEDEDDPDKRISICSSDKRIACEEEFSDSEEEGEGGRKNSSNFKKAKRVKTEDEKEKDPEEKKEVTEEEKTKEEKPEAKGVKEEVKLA
Protocol: as §1, §2

[1] = human recombinant HDAC6, same protocol as HDAC1
[2] = human recombinant HDAC1, Fluor de Lys substrate, 30° C. 60 minutes
[3] = human recombinant HDAC6, IC50 calculated with GraphPad Prism
[4] = human recombinant HDAC1, IC50 calculated with GraphPad Prism

IC50 (human recombinant HDAC1; [2]) [µM] | IC50 (human recombinant HDAC1; [4]) [µM] | Structure (SMILES) | other results
> 50 | – | Fc1cc(-c2nnc(C(F)F)o2)ccc1Cn1cc(-c2csc(CN3CC[C@@H](F)C3)c2)nn1 [Compound 18180, (R)-2-(difluoromethyl)-5-(3-fluoro-4-((4-(5-((3-fluoropyrrolidin-1-yl)methyl)thiophen-3-yl)-1H-1,2,3-triazol-1-yl)methyl)phenyl)-1,3,4-oxadiazole] | HDAC6 selectivity (fold) (human recombinant HDAC6; HDAC6 over HDAC1): 672 fold; IC50 (human recombinant HDAC6; [1]): 0.0743 µM
– | > 50 | CN1CCc2ccc(-c3cn(Cc4ccc(-c5nnc(C(F)F)o5)cn4)nn3)cc2C1 [Compound 4209, 2-(difluoromethyl)-5-(6-((4-(2-methyl-1,2,3,4-tetrahydroisoquinolin-7-yl)-1H-1,2,3-triazol-1-yl)methyl)pyridin-3-yl)-1,3,4-oxadiazole] | HDAC6 selectivity (fold) (human recombinant HDAC6; HDAC1 IC50 / HDAC6 IC50): 1298 fold; IC50 (human recombinant HDAC6; [3]): 0.0385 µM
> 50 | – | FC(F)c1nnc(-c2ccc(Cn3cc(-c4cccc(C5CN(C6COC6)C5)c4)nn3)nc2)o1 [Compound 4505, 2-(difluoromethyl)-5-(6-((4-(3-(1-(oxetan-3-yl)azetidin-3-yl)phenyl)-1H-1,2,3-triazol-1-yl)methyl)pyridin-3-yl)-1,3,4-oxadiazole] | HDAC6 selectivity (fold) (human recombinant HDAC6; HDAC6 over HDAC1): 2032 fold; IC50 (human recombinant HDAC6; [1]): 0.0246 µM
> 50 | – | OCc1ccc(-c2cn(Cc3ccc(-c4nnc(C(F)F)o4)cc3F)nn2)nc1 [Compound 17545, (6-(1-(4-(5-(difluoromethyl)-1,3,4-oxadiazol-2-yl)-2-fluorobenzyl)-1H-1,2,3-triazol-4-yl)pyridin-3-yl)methanol] | HDAC6 selectivity (fold) (human recombinant HDAC6; HDAC6 over HDAC1): 880 fold; IC50 (human recombinant HDAC6; [1]): 0.0568 µM
– | > 50 | CN(C)C(C)(C)C(=O)Nc1cccc(-c2cn(Cc3ccc(-c4nnc(C(F)F)o4)cc3)nn2)c1 [Compound 4351, N-(3-(1-(4-(5-(difluoromethyl)-1,3,4-oxadiazol-2-yl)benzyl)-1H-1,2,3-triazol-4-yl)phenyl)-2-(dimethylamino)-2-methylpropanamide] | HDAC6 selectivity (fold) (human recombinant HDAC6; HDAC1 IC50 / HDAC6 IC50): 1193 fold; IC50 (human recombinant HDAC6; [3]): 0.0419 µM
– | > 50 | CN1CC(NC(=O)c2cccc(-c3cn(Cc4ccc(-c5nnc(C(F)F)o5)cn4)nn3)c2)C1 [Compound 4480, 3-(1-((5-(5-(difluoromethyl)-1,3,4-oxadiazol-2-yl)pyridin-2-yl)methyl)-1H-1,2,3-triazol-4-yl)-N-(1-methylazetidin-3-yl)benzamide] | HDAC6 selectivity (fold) (human recombinant HDAC6; HDAC1 IC50 / HDAC6 IC50): 1388 fold; IC50 (human recombinant HDAC6; [3]): 0.036 µM
– | > 50 | CN1CC(NCc2ccc(-c3cn(Cc4ccc(-c5nnc(C(F)F)o5)cc4F)nn3)cc2)C1 [Compound 4470, N-(4-(1-(4-(5-(difluoromethyl)-1,3,4-oxadiazol-2-yl)-2-fluorobenzyl)-1H-1,2,3-triazol-4-yl)benzyl)-1-methylazetidin-3-amine] | HDAC6 selectivity (fold) (human recombinant HDAC6; HDAC1 IC50 / HDAC6 IC50): 915 fold; IC50 (human recombinant HDAC6; [3]): 0.0546 µM
> 50 | – | Fc1cc(-c2nnc(C(F)F)o2)ccc1Cn1cc(-c2ccc(CN3CCCC3)cc2)nn1 [Compound 4521, 2-(difluoromethyl)-5-(3-fluoro-4-((4-(4-(pyrrolidin-1-ylmethyl)phenyl)-1H-1,2,3-triazol-1-yl)methyl)phenyl)-1,3,4-oxadiazole] | HDAC6 selectivity (fold) (human recombinant HDAC6; HDAC6 over HDAC1): 4464 fold; IC50 (human recombinant HDAC6; [1]): 0.0112 µM
> 50 | – | Fc1cc(-c2nnc(C(F)F)o2)ccc1Cn1cc(-c2csc(CN3CCC3)c2)nn1 [Compound 18178, 2-(4-((4-(5-(azetidin-1-ylmethyl)thiophen-3-yl)-1H-1,2,3-triazol-1-yl)methyl)-3-fluorophenyl)-5-(difluoromethyl)-1,3,4-oxadiazole] | HDAC6 selectivity (fold) (human recombinant HDAC6; HDAC6 over HDAC1): 657 fold; IC50 (human recombinant HDAC6; [1]): 0.0761 µM
– | > 50 | CN1CC(c2cccc(-c3cn(Cc4ccc(-c5nnc(C(F)F)o5)cc4F)nn3)c2)C1 [Compound 4460, 2-(difluoromethyl)-5-(3-fluoro-4-((4-(3-(1-methylazetidin-3-yl)phenyl)-1H-1,2,3-triazol-1-yl)methyl)phenyl)-1,3,4-oxadiazole] | HDAC6 selectivity (fold) (human recombinant HDAC6; HDAC1 IC50 / HDAC6 IC50): 148 fold; IC50 (human recombinant HDAC6; [3]): 0.337 µM
> 50 | – | CN1CCC(c2cccc(-c3cn(Cc4ncc(-c5nnc(C(F)F)o5)cc4F)nn3)c2)CC1 [Compound 18869, 2-(difluoromethyl)-5-(5-fluoro-6-((4-(3-(1-methylpiperidin-4-yl)phenyl)-1H-1,2,3-triazol-1-yl)methyl)pyridin-3-yl)-1,3,4-oxadiazole] | HDAC6 selectivity (fold) (human recombinant HDAC6; HDAC6 over HDAC1): 1075 fold; IC50 (human recombinant HDAC6; [1]): 0.0465 µM
> 50 | – | CN1CCN(c2cc(-c3cn(Cc4ccc(-c5nnc(C(F)F)o5)cc4F)nn3)ccn2)CC1 [Compound 4633, 2-(difluoromethyl)-5-(3-fluoro-4-((4-(2-(4-methylpiperazin-1-yl)pyridin-4-yl)-1H-1,2,3-triazol-1-yl)methyl)phenyl)-1,3,4-oxadiazole] | –
> 50 | – | CN1CC(c2ccc(-c3cn(Cc4ccc(-c5nnc(C(F)F)o5)cc4F)nn3)cc2)C1 [Compound 17698] | –
– | > 50 | Fc1ccc(-c2cn(Cc3ccc(-c4nnc(C(F)F)o4)cc3)nn2)cc1F [Compound 3661, 2-(difluoromethyl)-5-(4-((4-(3,4-difluorophenyl)-1H-1,2,3-triazol-1-yl)methyl)phenyl)-1,3,4-oxadiazole] | –
> 50 | – | CC(C)N1Cc2ccc(-c3cn(Cc4ccc(-c5nnc(C(F)F)o5)cc4F)nn3)cc2C1 [Compound 4517, 2-(difluoromethyl)-5-(3-fluoro-4-((4-(2-isopropylisoindolin-5-yl)-1H-1,2,3-triazol-1-yl)methyl)phenyl)-1,3,4-oxadiazole] | –
– | > 50 | FC(F)c1nnc(-c2ccc(Cn3cc(-c4cn[nH]c4)nn3)nc2)o1 [Compound 3985, 2-(6-((4-(1H-pyrazol-4-yl)-1H-1,2,3-triazol-1-yl)methyl)pyridin-3-yl)-5-(difluoromethyl)-1,3,4-oxadiazole] | –
– | > 50 | CC(C)(F)C(=O)Nc1cccc(-c2cn(Cc3ccc(-c4nnc(C(F)F)o4)cc3F)nn2)c1 [Compound 4334] | –
> 50 | – | Fc1cc(-c2nnc(C(F)F)o2)ccc1Cn1cc(-c2ccn3ccnc3c2)nn1 [Compound 17198, 2-(difluoromethyl)-5-(3-fluoro-4-((4-(imidazo[1,2-a]pyridin-7-yl)-1H-1,2,3-triazol-1-yl)methyl)phenyl)-1,3,4-oxadiazole] | –
> 50 | – | CN(C)Cc1ccc(-c2cn(Cc3ccc(-c4nnc(C(F)F)o4)cc3F)nn2)cc1 [Compound 4522, 1-(4-(1-(4-(5-(difluoromethyl)-1,3,4-oxadiazol-2-yl)-2-fluorobenzyl)-1H-1,2,3-triazol-4-yl)phenyl)-N,N-dimethylmethanamine] | –
> 50 | – | CN(C)Cc1ccc(-c2cn(Cc3ccc(-c4nnc(C(F)F)o4)cc3F)nn2)s1 [Compound 17914, 1-(5-(1-(4-(5-(difluoromethyl)-1,3,4-oxadiazol-2-yl)-2-fluorobenzyl)-1H-1,2,3-triazol-4-yl)thiophen-2-yl)-N,N-dimethylmethanamine] | –
– | > 50 | FC(F)c1nnc(-c2ccc(Cn3cc(-c4ccc5[nH]ncc5c4)nn3)cc2)o1 [Compound 4344, 2-(4-((4-(1H-indazol-5-yl)-1H-1,2,3-triazol-1-yl)methyl)phenyl)-5-(difluoromethyl)-1,3,4-oxadiazole] | –
– | > 50 | CCN1CCC(c2cccc(-c3cn(Cc4ccc(-c5nnc(C(F)F)o5)cn4)nn3)c2)CC1 [Compound 4011, 2-(difluoromethyl)-5-(6-((4-(3-(1-ethylpiperidin-4-yl)phenyl)-1H-1,2,3-triazol-1-yl)methyl)pyridin-3-yl)-1,3,4-oxadiazole] | –
